{"source": "paper PMC12794188", "about": "“Maternal–Fetal Transfer and Toxicokinetics of 2,2′,5,5′-Tetrachlorobiphenyl, [^14C]-PCB52, Following Intratracheal Administration” (Chemical Research in Toxicology, 2025)", "origin": "cited, not measured here", "parameters": "method as in Pu et al.", "details": "ref Pu et al., cited from earlier work", "data": [{"smiles": "Clc1ccc(Cl)c(-c2cc(Cl)ccc2Cl)c1", "note": "[PCB52, 2,2′,5,5′-Tetrachlorobiphenyl]", "values": [{"measurement": "half-life", "setting": "intravenous administration in male rats", "result": "~10", "unit": "days"}, {"measurement": "half-life estimate", "setting": "intravenous, male rats, measured only up to 72 h postdosing", "result": 10, "unit": "days"}]}]}
